Residues, ends and D or L forms follow the SMILES beside them.
Assays:
Type in all cases: cell-based
[1] = tested on: Human polymorphonuclear leukocytes (PMNs); experiment: Phagocytosis assay (fluorescent microspheres engulfed per PMN)
Experimental: Phagocytosis Assay Human polymorphonuclear leukocytes (PMNs) were prepared from venous blood of healthy donors. Heparinized blood was mixed with dextran and kept at 37° C. for 1 hour. The leukocyte-rich plasma was collected and centrifuged. The resulting pellet was washed with Hank's balanced salt solution (HBSS). The pellet was then suspended into HBSS, layered over Lymphocyte Separation Medium (LSM) and centrifuged. The sedimented cells were washed with HBSS. Contaminant erythrocytes were lysed by suspending the cells in sterile water for 15 seconds. The isotonicity was then restored by adding 10× HBSS. After centrifuging, the PMNs were washed with HBSS, suspended in the same medium, counted, and adjusted to 1×10^6 viable cells/ml (viability>95% by trypan blue dye exclusion). Cells (0.5×10^6 /well) were plated in 24 well plate and placed in a 37° C. CO2 incubator for 30 min to form a monolayer. Thereafter the supernatant was aspirated. Tuftsin or analog in 250 μl HBSS and 2.5×10^7 fluorescent microspheres (2 μm diameter) in 250 μl HBSS, were added to each well resulting in a particle to PMN ratio of 50:1, mixed, and incubated for 15 min. The supernatant was then quickly aspirated and each well washed with HBSS. One ml of trypsin (0.25% in saline) was added to each well and the plate incubated for 15 min to detach the cells and remove non-engulfed particles associated on the surface of PMN. The cells were transferred, layered over 2 ml fetal bovine serum (FBS), and centrifuged. The supernatant containing free particles were removed. The cell pellet was suspended, fixed in 2% paraformaldehyde, and plated again into a well. After 10 min, particles engulfed per PMN were counted under a microscope (100 cells per well). The mean values from triplicates were used to calculate percent phagocytosis increase over control mean value. Using purified cyclo[[…]] (SEQ ID no. 1) as an example, we have examined in vitro biological activities of this peptide. A phagocytosis assay was performed to compare the activity of cyclo[[…]] (SEQ ID no. 1) to that of tuftsin. The optimum concentration of tuftsin in this assay is 5 μg/ml. However, the optimum concentration for cyclo[[…]]

[2] = tested on: THP-1 (human acute monocytic leukemia) cell line; experiment: Thymidine incorporation assay (growth stimulation effect); details: THP-1 cells, at 0.001 and 10 μg/ml; FIG. 2
Experimental: Thymidine Incorporation Assay
THP-1 (a human acute monocytic leukemia line) cells were subcultured in RPMI-1640 medium with 10% FBS. Next day THP-1 cells were collected, washed with RPMI-1640 medium with 2% FBS, and plated into well with peptide (1×10^6 cell in 1 ml). The plate was incubated for 18 hours. ^3 H-thymidine (0.1 μCi per well) was then introduced. The plate was incubated for another hour. The cells were collected into a tube using 1 ml of cold HBSS. After washing the cells twice, the cells were mixed with 0.2 ml of 0.1% sodium dodecyl sulfate, and transferred to a liquid scintillation vial for determination of radioactivity. The mean values from triplicates were used to calculate percent increase over control mean value.
To examine the growth stimulating effect of peptides, a thymidine incorporation experiment was performed using THP-1 (human acute monocytic leukemia) cell line.

human NK cells = experiment: Tumor cell cytotoxicity assay by human NK cells (4 hour 51Cr release, K-562 targets); details: effector:target ratios of 25:1 and 50:1, peptide concentration 1 μg/ml, FIG. 3
Experimental: Tumor Cell Cytotoxicity Assay by Human NK Cells
Heparinized blood was layered over Leukoprep tube (30 ml per tube), and centrifuged. The mononuclear cells at interphase were collected, washed with HBSS, suspended in RPMI-1640 medium with 10% FBS (15 ml per 30 ml starting blood), plated on Petri dishes, and incubated for 1 hour. Non-adherent cells were collected, suspended in RPMI-1640 medium with 5% FBS, and adjusted to 1×10^6 /ml for 4 hour ^51 Cr release assay. The viability of this NK cell enriched fraction was assessed with trypan blue.
The tumor target cells, K-562, were harvested from culture, washed with RPMI-1640 medium with 5% FBS, and centrifuged. Pelleted cells of 2×10^6 K-562 were suspended into 0.2 ml of 100 μCi of ^51 CrO4 in saline, and labelled for 90 min in the incubator. The labelled target cells were washed with RPMI-1640 medium with 5% FBS, suspended in the same medium, and adjusted to a suspension of 2×10^5 /ml. […] Filters containing radioactive supernatants were counted on a γ counter, and counts per minutes (cpm) were recorded. Percent cytotoxicity (% specific lysis) was calculated by the following formula: […]
Spontaneous cpm was obtained by incubating the tumor target cells alone in the medium. Maximum cpm was obtained by releasing the radioactivity from the target cells by treatment with Triton X-100. […]

C[C@@H](O)[C@@H]1NC(=O)CNC(=O)[C@H](CCCNC(=N)N)NC(=O)[C@@H]2CCCN2C(=O)[C@H](CCCCN)NC1=O [cyclo[Thr-Lys-Pro-Arg-Gly]] (cyclo(GTKPR))
extent of phagocytosis compared with tuftsin at 5 μg/ml ([1]; 0.1 μg/ml of cyclic peptide vs 5 μg/ml of tuftsin): no significant difference
potency in phagocytosis assay compared with tuftsin ([1]; at lower concentrations of 0.01 and 0.1 μg/ml, Student t-test, FIG. 1): significantly superior potency over tuftsin
optimum concentration in phagocytosis assay ([1]; human PMNs, 15 min incubation, particle to PMN ratio 50:1, FIG. 1): 0.1 µg/mL
optimum concentration, fold lower than tuftsin ([1]; phagocytosis assay, human PMNs): 50 fold
growth stimulating activity (3H-thymidine incorporation) compared with tuftsin [2]: significantly greater activities than tuftsin
enhancement of NK tumor cell cytotoxicity compared with tuftsin (human NK cells): significantly greater cytotoxicity

From patent publication US6177405A, “Cyclic analogs of tuftsin” (priority 1992, dated 2001)
